Results as given in the supplement of paper PMC10307832.

Legend:
Assay in all cases: relative viability (nuclei count vs DMSO), 5 days (fraction); higher = more cells survive
Vandetanib + Lapatinib = compound: COc1cc2/c(=N/c3ccc(Br)cc3F)nc[nH]c2cc1OCC1CCN(C)CC1 [Vandetanib] + CS(=O)(=O)CCNCc1ccc(-c2ccc3ncnc(Nc4ccc(OCc5cccc(F)c5)c(Cl)c4)c3c2)o1 [Lapatinib] (partner 2 µM)
Summary of the method: (§1)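 Cells from lung cancer lines were seeded into 1536-well plates and, one day later, dosed by pin tool. Treatments were either a single drug or a fixed dose of an anchor drug with five library-drug doses (not always all listed) in √10 steps. After 5 days, nuclei were stained in a one-step fixation (final 0.05% Triton X-100, 1% formaldehyde, 1 ug/ml Hoechst) and counted on 4× images, and relative viability is the treated-to-vehicle nuclei ratio, as the median of duplicate plates.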

NVP-TAE684 + Bortezomib = compound: COc1cc(N2CCC(N3CCN(C)CC3)CC2)ccc1Nc1ncc(Cl)c(Nc2ccccc2S(=O)(=O)C(C)C)n1 [NVP-TAE684] + CC(C)C[C@H](NC(=O)[C@H](Cc1ccccc1)NC(=O)c1cnccn1)B(O)O [Bortezomib] (partner 0.002 µM)
Summary of the method: as §1

NVP-TAE684 + Lapatinib = compound: COc1cc(N2CCC(N3CCN(C)CC3)CC2)ccc1Nc1ncc(Cl)c(Nc2ccccc2S(=O)(=O)C(C)C)n1 [NVP-TAE684] + CS(=O)(=O)CCNCc1ccc(-c2ccc3ncnc(Nc4ccc(OCc5cccc(F)c5)c(Cl)c4)c3c2)o1 [Lapatinib] (partner 2 µM)
Summary of the method: as §1

[1] = compound: C1=CC=C2C(=C1)N=C(S2)C(C#N)C3=NC(=NC=C3)NCCC4=CN=CC=C4 + CC(=O)Nc1cccc(-n2c(=O)n(C3CC3)c(=O)c3c(Nc4ccc(I)cc4F)n(C)c(=O)c(C)c32)c1 [Trametinib] (partner 0.02 µM)
Summary of the method: as §1

Cell Line | relative viability (Vandetanib + Lapatinib; first compound 0.02 µM) | relative viability (Vandetanib + Lapatinib; first compound 0.06325 µM) | relative viability (Vandetanib + Lapatinib; first compound 0.2 µM) | relative viability (Vandetanib + Lapatinib; first compound 0.6325 µM) | relative viability (Vandetanib + Lapatinib; first compound 2 µM) | relative viability (NVP-TAE684 + Bortezomib; first compound 0.2 µM) | relative viability (NVP-TAE684 + Bortezomib; first compound 0.6325 µM) | relative viability (NVP-TAE684 + Bortezomib; first compound 2 µM) | relative viability (NVP-TAE684 + Lapatinib; first compound 0.2 µM) | relative viability (NVP-TAE684 + Lapatinib; first compound 0.6325 µM) | relative viability (NVP-TAE684 + Lapatinib; first compound 2 µM) | relative viability ([1]; first compound 0.005 µM) | relative viability ([1]; first compound 0.01581 µM) | relative viability ([1]; first compound 0.05 µM) | relative viability ([1]; first compound 0.1581 µM) | relative viability ([1]; first compound 0.5 µM)
IA-LM | 0.762 | 0.737 | 0.953 | 0.798 | 0.987 | 0.679 | 0.563 | 0.583 | 0.698 | 0.66 | 0.427 | – | – | – | – | –
LC-2-ad | 0.896 | 0.949 | 0.506 | 0.783 | 0.711 | 1.13 | 0.9 | 0.605 | 0.988 | 0.921 | 0.455 | 0.881 | 0.979 | 0.891 | 0.928 | 0.829
LCLC-97TM1 | 0.864 | 1.05 | 0.909 | 0.841 | 0.8 | 0.711 | 0.216 | 0.194 | 1.51 | 0.547 | 0.287 | 0.152 | 0.202 | 0.172 | 0.239 | 0.2
LCLC-103H | – | – | – | – | – | 1.09 | 1.11 | – | – | – | – | 0.648 | 0.735 | 0.692 | 0.695 | 0.659
LK-2 | 0.999 | 0.964 | 0.716 | 1.05 | 0.636 | – | – | – | 1.01 | 0.721 | 0.69 | 0.535 | 0.604 | 0.907 | 0.74 | 0.838
LOU-NH91 | 0.739 | 0.761 | 0.783 | 0.764 | 0.799 | 0.548 | 0.492 | 0.518 | 0.781 | 0.648 | 0.516 | 0.794 | 0.806 | 0.764 | 0.794 | 0.779
LU99A | 0.973 | 0.869 | 1.01 | 0.828 | 1.04 | 1.29 | 1.1 | 0.653 | – | 0.974 | 0.543 | 0.463 | 0.543 | – | 0.661 | 0.555
LXF-289 | 0.899 | 0.842 | 0.89 | 0.871 | 0.887 | 1.06 | 1.03 | 1.02 | 0.946 | – | 0.861 | 0.601 | 0.726 | 0.716 | 0.706 | 0.577
NCI-H23 | 1.07 | 0.971 | 0.969 | 1.28 | 0.962 | 0.867 | 0.993 | 0.54 | 1.15 | 1.05 | 0.512 | – | 0.436 | 0.391 | 0.406 | 0.45
NCI-H322M | 0.6 | 0.534 | 0.567 | 0.516 | 0.5 | 1.23 | 1.16 | 0.924 | 0.637 | 0.609 | 0.404 | 0.483 | 0.525 | 0.489 | 0.569 | 0.558
NCI-H358 | 0.38 | 0.397 | 0.445 | 0.419 | 0.434 | – | – | – | 0.397 | 0.328 | 0.256 | 0.125 | 0.132 | 0.113 | 0.139 | 0.15
NCI-H441 | – | – | – | – | – | 0.516 | 0.358 | 0.204 | – | – | – | 0.444 | 0.409 | 0.432 | 0.49 | 0.307
NCI-H460 | 0.878 | 0.962 | 0.969 | 0.951 | 0.874 | 1.77 | 1.2 | 0.593 | 0.903 | 1.29 | 0.441 | – | 0.137 | 0.131 | 0.175 | 0.141
NCI-H520 | 0.679 | 0.807 | 0.918 | 0.936 | 0.831 | – | 0.672 | 0.321 | 0.761 | 0.884 | 0.454 | 0.659 | 0.684 | 0.765 | 0.799 | 0.824
NCI-H522 | – | – | – | – | – | – | – | – | – | – | – | 0.98 | 0.846 | 0.766 | 0.755 | 0.761
NCI-H1299 | 0.965 | 0.95 | 0.892 | 0.968 | 0.948 | 1.03 | 1.02 | 1.06 | 1.03 | 0.964 | 0.836 | – | – | – | – | –
NCI-H1395 | 0.963 | 0.875 | 1.03 | 0.936 | 0.864 | – | – | – | 1.29 | 0.921 | 0.859 | 0.983 | – | 0.949 | 1.2 | 0.979
NCI-H1563 | 0.957 | 0.882 | 1.39 | 0.953 | 1.03 | – | 0.755 | 0.725 | 0.95 | 0.858 | 0.655 | – | – | – | – | –
NCI-H1648 | – | – | – | – | – | – | – | – | – | – | – | – | 0.486 | – | 0.499 | 0.498
NCI-H1703 | 1.13 | – | 1.24 | 0.932 | 0.417 | 0.315 | 0.275 | 0.129 | 1.41 | 0.994 | 0.392 | – | – | – | – | –
NCI-H1793 | 0.682 | 0.794 | 0.504 | 0.816 | 0.723 | – | – | – | 0.925 | 0.499 | 0.611 | – | 0.397 | 0.423 | 0.475 | 0.488
NCI-H1944 | 0.818 | 0.848 | 0.798 | 0.845 | 0.808 | – | – | – | – | 0.798 | 0.607 | 0.429 | 0.463 | 0.379 | 0.405 | 0.398
NCI-H2170 | 0.264 | 0.253 | 0.225 | 0.271 | 0.269 | – | – | – | 0.253 | 0.244 | 0.247 | 0.623 | 0.924 | 0.884 | 1.04 | 0.655
NCI-H2342 | – | – | – | – | – | – | – | – | – | – | – | 0.733 | 0.89 | 0.867 | 0.798 | 0.844
SK-MES-1 | 0.474 | 0.499 | 0.489 | 0.471 | 0.459 | – | – | – | 0.539 | 0.453 | 0.472 | 0.576 | 0.555 | 0.531 | 0.604 | 0.629
SW 900 | – | – | – | – | – | – | – | – | – | – | – | 0.586 | 0.806 | 0.584 | 1.06 | 0.648
